Assay results: US20250325256A1, “LIPID PATCH” (SENSACH AB, priority 2021, published 2025)

Legend:
[1] = Reverse iontophoretic extraction of Trp and Kyn in side-by-side cells; type: in vitro ADME, pig; details: for Flux at anode / Flux at cathode / Cumulative amount at anode / Cumulative amount at cathode: mean ± SEM
Method: Due to the small molecular weight, Trp and Kyn are good candidates for non-invasive monitoring as their passive permeation across the skin membrane is not restricted by the SC's ‘500 Dalton’ rule. Moreover, because of their polar nature (zwitterionic at neutral pH), these compounds are perfect candidates for extraction by reverse iontophoresis. The non-invasive reverse iontophoretic sampling of Trp and Kyn was conducted in vitro using side-by-side cells consisting of two receptor compartments (anodal & cathodal) and a subdermal compartment. Reverse iontophoretic and passive extraction experiments were performed using identical experimental conditions. […] The reverse iontophoretic extraction was performed by application of a constant current 0.3 mA ([…]) for 6 hours in total. Sampling was performed every hour by withdrawing 1 mL of receptor solution and the amount of permeated compound was determined by HPLC-UV. […] The reservoir consists primarily of amino acids and amino acid derivatives originating from proteolysis of filaggrin.
Pig skin, purchased from a local abattoir, was gently cleaned post-sacrifice under cold running water. The skin from abdomen or from the inside of the outer ear was used as in vitro skin model. The hair was trimmed and the skin was dermatomed to a final thickness of 750 μm (Dermatome, Integra LifeSciences, Plainsboro, NJ, USA). Skin samples were then wrapped individually in Parafilm™ and kept at −20° C. for not more than three months until use. Prior to extraction experiments, skin was cut into 4 cm^2 membranes while still being frozen. Prepared skin membranes were then left at ambient environment for 30 minutes to thaw and obtain room temperature. The integrity of each skin membrane was visually inspected against the light in order to ensure that there were no visible damages (holes). Hairs were then further trimmed with scissors and skin was gently rinsed under cold running water.
The Ag/AgCl electrode couple were preferred over platinum because it avoids the sharp decrease in the pH of the solution as their electrochemistry occurs at voltages considerably lower than those required for electrolysis of water. The electrodes were prepared by making a small loop at one of the ends of the silver wire and dipping it into the molten silver chloride in order to coat the loop with AgCl. After cooling, anodal electrodes were prepared by conditioning AgCl coated loops overnight against a platinum wire anode (0.2 mm in diameter, Sigma), at 0.3 mA with 50 mM NaCl as an electrolyte solution resulting in the formation of a layer of silver on the outer surface of the electrodes.
where zp, up, cp are the charge, mobility and concentration of the permeant, ID is the current density (=I/A), F is the Faraday's constant and summation includes all the species in solution that can carry the charge, v is the solvent velocity. Electromigration is a direct cause of current application, which leads to a formation of an electric field across the skin.

[2] = Post iontophoretic passive extraction (further 18 hours); type: in vitro ADME, pig; details: for Normalized cumulative amount at anode / Normalized cumulative amount at cathode: mean ± SEM
From the text: Therefore, while enhancing extraction at the cathode, electroosmosis (at pH>skin pI) retards the extraction of anions and zwitterions towards the anode as they have to move against the solvent flow. This may result in a build-up of zwitterions moving towards the anode and against the electroosmotic flow. Therefore, the skin membrane that faces the anodal compartment could potentially contain higher amounts of zwitterionic compounds compared to the skin membrane facing the cathodal compartment. In order to further investigate the effect of electroosmosis, the post iontophoretic passive extraction experiments were performed for another 18 hours.
The effect of receptor solution pH on the cumulative amount of endogenous substances extracted from the skin membrane during post iontophoretic passive extraction as well as from passive control experiments is shown in FIG. 16. […] Moreover, in post iontophoretic experiments, there was an increase in the amount of endogenous substances passively extracted into anode compartment with increased pH. In order to determine the amount of endogenous substances obtained during the post iontophoretic step, the cumulative amount of endogenous substances extracted during 6 hours of reverse iontophoresis were subtracted from the total cumulative amount.
In extraction experiments preformed without a cubic phase, sampling was performed every hour for six hours by withdrawing 1 mL from the receptor compartments and replacing it with 1 mL of neat buffer solution. After the final sampling the current was stopped and the donor compartment was emptied. The post iontophoretic passive extraction from the skin membranes was allowed to continue for another 18 hours in order to investigate the effect of electroosmosis, since the skin membrane was the only source of endogenous substance after removal of donor solution. In total 7 samplings were performed over 24 hours i.e., 6 during the current passage and 1 from the post iontophoretic passive extraction. In case of reverse iontophoretic extraction into the cubic phase, the sampling was performed in the same way i.e., every hour for 6 hours 1 mL of receptor solution was replaced with a 1 mL of a neat buffer. However, in contrast to previous procedure, the experiment was terminated after 6 hours of current passage. The cubic phase was collected into 1.7 mL Eppendorf tube ensuring that as little residue as possible was left on the skin surface. The extraction of endogenous substances from the cubic phase was performed as follows: 1 mL of Milli-Q water was added to the cubic phase and left on shaker for 1 hour. After that, each Eppendorf tube was vortex for 1 minute and the final aqueous solution was collected with a syringe. Small part of a cubic phase was taken for SAXD measurements in order to investigate any potential changes in the phase after reverse iontophoretic experiment.

[3] = pH 7.4, after 4 hours of iontophoresis
[4] = receptor pH 4.0, after 6 hours of iontophoresis
[5] = receptor pH 4.0, donor pH 7.4, after 6 h
[6] = receptor pH 7.4, after 6 hours of iontophoresis
[7] = receptor pH 7.4, donor pH 7.4, after 6 h
[8] = receptor pH 9.0, after 6 hours of iontophoresis
[9] = receptor pH 9.0, donor pH 7.4, after 6 h
[10] = pH 4.0, 24 h amount minus first 6 hours
[11] = pH 7.4, 24 h amount minus first 6 hours
[12] = pH 9.0, 24 h amount minus first 6 hours
[13] = pH 7.4, after the first hour of current application
[14] = receptor pH 4.0, iontophoretic vs passive cumulative amount after 6 hours
[15] = receptor pH 7.4, iontophoretic vs passive cumulative amount after 6 hours
[16] = receptor pH 9.0, iontophoretic vs passive cumulative amount after 6 hours
[17] = pH 4.0, from normalized cumulative amounts
[18] = pH 7.4, from normalized cumulative amounts
[19] = pH 9.0, from normalized cumulative amounts

Nc1ccccc1C(=O)C[C@H](N)C(=O)O [Kyn, L-kynurenine]
cumulative amount extracted towards the cathode (QC) [1, 3]: 2.50±0.44 nmol/cm^2 | Flux at anode [1, 4]: 0.18 ± 0.09 nmol/(h · cm^2) | Flux at cathode [1, 4]: 0.93 ± 0.23 nmol/(h · cm^2) | Cumulative amount at anode [1, 5]: 0.91 ± 0.44 nmol/cm^2 | Cumulative amount at cathode [1, 5]: 3.76 ± 0.89 nmol/cm^2 | Flux at anode [1, 6]: 0.11 ± 0.08 nmol/(h · cm^2) | Flux at cathode [1, 6]: 1.88 ± 0.18 nmol/(h · cm^2) | Cumulative amount at anode [1, 7]: 0.25 ± 0.17 nmol/cm^2 | Cumulative amount at cathode [1, 7]: 5.97 ± 0.73 nmol/cm^2 | Flux at anode [1, 8]: 0.52 ± 0.23 nmol/(h · cm^2) | Flux at cathode [1, 8]: 1.99 ± 0.16 nmol/(h · cm^2) | Cumulative amount at anode [1, 9]: 0.64 ± 0.27 nmol/cm^2 | Cumulative amount at cathode [1, 9]: 6.38 ± 0.62 nmol/cm^2 | Normalized cumulative amount at anode [2, 10]: 6.56 ± 2.40 nmol/cm^2 | Normalized cumulative amount at cathode [2, 10]: 5.31 ± 1.35 nmol/cm^2 | Normalized cumulative amount at anode [2, 11]: 14.35 ± 2.33 nmol/cm^2 | Normalized cumulative amount at cathode [2, 11]: 2.12 ± 8.37 nmol/cm^2 | Normalized cumulative amount at anode [2, 12]: 19.90 ± 2.45 nmol/cm^2 | Normalized cumulative amount at cathode [2, 12]: 10.29 ± 2.07 nmol/cm^2

N[C@@H](Cc1c[nH]c2ccccc12)C(=O)O [Trp, L-tryptophan]
cumulative amount extracted towards the cathode (QC) [1, 3]: 3.59±0.43 nmol/cm^2 | cumulative amount extracted to the anode (QA) ([1]; pH 7.4, after 5 hours of current application): 1.03±0.08 nmol/cm^2 | cumulative amount at cathode, times higher than at anode ([1]; pH 7.4, after 6 hours): ~6 | cumulative amount extracted to the anode (QA) [1, 13]: 0.28±0.06 nmol/cm^2 | cumulative amount extracted towards the cathode (QC) [1, 13]: 0.49±0.04 nmol/cm^2 | Flux at anode [1, 4]: 0.35 ± 0.12 nmol/(h · cm^2) | Flux at cathode [1, 4]: 1.03 ± 0.21 nmol/(h · cm^2) | Cumulative amount at anode [1, 5]: 2.01 ± 0.65 nmol/cm^2 | Cumulative amount at cathode [1, 5]: 4.39 ± 0.87 nmol/cm^2 | Ratio Trp/Kyn (after 6 h) ([1]; receptor pH 4.0, from cathode fluxes): 1.01 | Ratio Trp/Kyn (after 6 h) ([1]; receptor pH 4.0, from cumulative amounts at the cathode): 1.35 ± 0.24 | ER Anode [1, 14]: 11 | ER Cathode [1, 14]: 24 | Flux at anode [1, 6]: 0.24 ± 0.07 nmol/(h · cm^2) | Flux at cathode [1, 6]: 2.02 ± 0.19 nmol/(h · cm^2) | Cumulative amount at anode [1, 7]: 1.27±0.13 nmol/cm^2 | Cumulative amount at cathode [1, 7]: 7.36±0.75 nmol/cm^2 | Ratio Trp/Kyn (after 6 h) ([1]; receptor pH 7.4, from cathode fluxes): 1.07 | Ratio Trp/Kyn (after 6 h) ([1]; receptor pH 7.4, from cumulative amounts at the cathode): 1.25 ± 0.03 | ER Anode [1, 15]: 2 | ER Cathode [1, 15]: ~12 | Flux at anode [1, 8]: 0.69 ± 0.23 nmol/(h · cm^2) | Flux at cathode [1, 8]: 2.32 ± 0.15 nmol/(h · cm^2) | Cumulative amount at anode [1, 9]: 1.62 ± 0.26 nmol/cm^2 | Cumulative amount at cathode [1, 9]: 8.15 ± 0.59 nmol/cm^2 | Ratio Trp/Kyn (after 6 h) ([1]; receptor pH 9.0, from cathode fluxes): 1.17 | Ratio Trp/Kyn (after 6 h) ([1]; receptor pH 9.0, from cumulative amounts at the cathode): 1.29 ± 0.03 | ER Anode [1, 16]: 2 | ER Cathode [1, 16]: 11 | Normalized cumulative amount at anode [2, 10]: 6.22 ± 1.49 nmol/cm^2 | Normalized cumulative amount at cathode [2, 10]: 5.36 ± 1.32 nmol/cm^2 | Ratio (Trp/Kyn) at anode [2, 17]: 1.19 ± 0.17 | Ratio (Trp/Kyn) at cathode [2, 17]: 1.05 ± 0.03 | Normalized cumulative amount at anode [2, 11]: 14.13 ± 2.25 nmol/cm^2 | Normalized cumulative amount at cathode [2, 11]: 7.38 ± 2.57 nmol/cm^2 | Ratio (Trp/Kyn) at anode [2, 18]: 0.99 ± 0.02 | Ratio (Trp/Kyn) at cathode [2, 18]: 0.86 ± 0.08 | Normalized cumulative amount at anode [2, 12]: 17.52 ± 1.58 nmol/cm^2 | Normalized cumulative amount at cathode [2, 12]: 9.77 ± 1.95 nmol/cm^2 | Ratio (Trp/Kyn) at anode [2, 19]: 0.89 ± 0.02 | Ratio (Trp/Kyn) at cathode [2, 19]: 0.95 ± 0.02
